{"source": "ChEMBL document CHEMBL1124193", "about": "“Synthesis and bacterial DNA gyrase inhibitory properties of a spirocyclopropylquinolone derivative” (J Med Chem, 1988)", "data": [{"tested_on": "Escherichia coli", "assay": "In vitro minimum inhibitory concentration against Escherichia coli (ATCC […]25922)", "type": "functional", "details": "not given", "units": {"MIC": "µg/mL"}, "values": [{"smiles": "CN1CCN(c2c(F)cc3c(=O)c(C(=O)O)cn4c3c2OCC42CC2)CC1", "MIC": 0.125}]}, {"tested_on": "Enterococcus faecalis", "assay": "In vitro minimum inhibitory concentration against Streptococcus faecalis (ATCC 29212)", "type": "functional", "details": "not given", "units": {"MIC": "µg/mL"}, "values": [{"smiles": "CN1CCN(c2c(F)cc3c(=O)c(C(=O)O)cn4c3c2OCC42CC2)CC1", "MIC": 8}, {"smiles": "O=C(O)c1cn(C2CC2)c2cc(N3CCNCC3)c(F)cc2c1=O", "note": "[CIPROFLOXACIN]", "MIC": 0.5}, {"smiles": "C[C@H]1COc2c(N3CCN(C)CC3)c(F)cc3c(=O)c(C(=O)O)cn1c23.C[C@H]1COc2c(N3CCN(C)CC3)c(F)cc3c(=O)c(C(=O)O)cn1c23.O", "note": "[LEVOFLOXACIN]", "MIC": 16}, {"smiles": "CC1COc2c(N3CCN(C)CC3)c(F)cc3c(=O)c(C(=O)O)cn1c23", "note": "(stereo unspecified) [OFLOXACIN]", "MIC": 2}]}, {"tested_on": "Mus musculus", "assay": "In vivo antibacterial activity against Escherichia coli (Vogel) in mice administered subcutaneously", "type": "functional", "details": "sc, read-out: PD50", "units": {"ED50": "mg/kg"}, "values": [{"smiles": "CN1CCN(c2c(F)cc3c(=O)c(C(=O)O)cn4c3c2OCC42CC2)CC1", "ED50": 1.9}, {"smiles": "O=C(O)c1cn(C2CC2)c2cc(N3CCNCC3)c(F)cc2c1=O", "note": "[CIPROFLOXACIN]", "ED50": 0.2}, {"smiles": "C[C@H]1COc2c(N3CCN(C)CC3)c(F)cc3c(=O)c(C(=O)O)cn1c23.C[C@H]1COc2c(N3CCN(C)CC3)c(F)cc3c(=O)c(C(=O)O)cn1c23.O", "note": "[LEVOFLOXACIN]", "ED50": 3.8}, {"smiles": "CC1COc2c(N3CCN(C)CC3)c(F)cc3c(=O)c(C(=O)O)cn1c23", "note": "(stereo unspecified) [OFLOXACIN]", "ED50": 1.2}]}, {"tested_on": "Streptococcus pneumoniae", "assay": "In vitro minimum inhibitory concentration against Streptococcus pneumoniae (ATCC 6301)", "type": "functional", "details": "not given", "units": {"MIC": "µg/mL"}, "values": [{"smiles": "CN1CCN(c2c(F)cc3c(=O)c(C(=O)O)cn4c3c2OCC42CC2)CC1", "MIC": 8}, {"smiles": "O=C(O)c1cn(C2CC2)c2cc(N3CCNCC3)c(F)cc2c1=O", "note": "[CIPROFLOXACIN]", "MIC": 0.25}]}, {"tested_on": "Mus musculus", "assay": "In vivo antibacterial activity against Escherichia coli (Vogel) in mice administered perorally", "type": "functional", "details": "po, read-out: PD50", "units": {"ED50": "mg/kg"}, "values": [{"smiles": "CN1CCN(c2c(F)cc3c(=O)c(C(=O)O)cn4c3c2OCC42CC2)CC1", "ED50": 6.3}, {"smiles": "O=C(O)c1cn(C2CC2)c2cc(N3CCNCC3)c(F)cc2c1=O", "note": "[CIPROFLOXACIN]", "ED50": 0.86}, {"smiles": "C[C@H]1COc2c(N3CCN(C)CC3)c(F)cc3c(=O)c(C(=O)O)cn1c23.C[C@H]1COc2c(N3CCN(C)CC3)c(F)cc3c(=O)c(C(=O)O)cn1c23.O", "note": "[LEVOFLOXACIN]", "ED50": 10.1}, {"smiles": "CC1COc2c(N3CCN(C)CC3)c(F)cc3c(=O)c(C(=O)O)cn1c23", "note": "(stereo unspecified) [OFLOXACIN]", "ED50": 2.2}]}, {"tested_on": "Bacteroides fragilis", "assay": "In vitro minimum inhibitory concentration against Bacteroides fragilis (ATCC 25285)", "type": "functional", "details": "not given", "units": {"MIC": "µg/mL"}, "values": [{"smiles": "CN1CCN(c2c(F)cc3c(=O)c(C(=O)O)cn4c3c2OCC42CC2)CC1", "MIC": 8}, {"smiles": "O=C(O)c1cn(C2CC2)c2cc(N3CCNCC3)c(F)cc2c1=O", "note": "[CIPROFLOXACIN]", "MIC": 2}, {"smiles": "C[C@H]1COc2c(N3CCN(C)CC3)c(F)cc3c(=O)c(C(=O)O)cn1c23.C[C@H]1COc2c(N3CCN(C)CC3)c(F)cc3c(=O)c(C(=O)O)cn1c23.O", "note": "[LEVOFLOXACIN]", "MIC": 16}, {"smiles": "CC1COc2c(N3CCN(C)CC3)c(F)cc3c(=O)c(C(=O)O)cn1c23", "note": "(stereo unspecified) [OFLOXACIN]", "MIC": 0.5}]}, {"tested_on": "Staphylococcus aureus", "assay": "In vitro minimum inhibitory concentration against Staphylococcus aureus (ATCC 29213)", "type": "functional", "details": "not given", "units": {"MIC": "µg/mL"}, "values": [{"smiles": "CN1CCN(c2c(F)cc3c(=O)c(C(=O)O)cn4c3c2OCC42CC2)CC1", "MIC": 2}, {"smiles": "O=C(O)c1cn(C2CC2)c2cc(N3CCNCC3)c(F)cc2c1=O", "note": "[CIPROFLOXACIN]", "MIC": 0.25}, {"smiles": "C[C@H]1COc2c(N3CCN(C)CC3)c(F)cc3c(=O)c(C(=O)O)cn1c23.C[C@H]1COc2c(N3CCN(C)CC3)c(F)cc3c(=O)c(C(=O)O)cn1c23.O", "note": "[LEVOFLOXACIN]", "MIC": 2}, {"smiles": "CC1COc2c(N3CCN(C)CC3)c(F)cc3c(=O)c(C(=O)O)cn1c23", "note": "(stereo unspecified) [OFLOXACIN]", "MIC": 0.25}]}, {"tested_on": "Pseudomonas aeruginosa", "assay": "In vitro minimum inhibitory concentration against Pseudomonas aeruginosa (ATCC 27853)", "type": "functional", "details": "not given", "units": {"MIC": "µg/mL"}, "values": [{"smiles": "CN1CCN(c2c(F)cc3c(=O)c(C(=O)O)cn4c3c2OCC42CC2)CC1", "MIC": 4}, {"smiles": "C[C@H]1COc2c(N3CCN(C)CC3)c(F)cc3c(=O)c(C(=O)O)cn1c23.C[C@H]1COc2c(N3CCN(C)CC3)c(F)cc3c(=O)c(C(=O)O)cn1c23.O", "note": "[LEVOFLOXACIN]", "MIC": 32}, {"smiles": "CC1COc2c(N3CCN(C)CC3)c(F)cc3c(=O)c(C(=O)O)cn1c23", "note": "(stereo unspecified) [OFLOXACIN]", "MIC": 0.5}]}]}
